Results on one compound are retold here after paper PMC6422238, “Absence of a human ortholog of rodent Kupffer cell galactose-binding receptor encoded by the CLEC4f gene” (Glycobiology, 2019).

Test [1] addresses T1, Murine CLEC4f protein; murine Kupffer cell receptor (Mus musculus, UniProt P70194).
T1 construct: fluorescein isothiocyanate labelled
T1 sequence (P70194 70-548 limits assumed): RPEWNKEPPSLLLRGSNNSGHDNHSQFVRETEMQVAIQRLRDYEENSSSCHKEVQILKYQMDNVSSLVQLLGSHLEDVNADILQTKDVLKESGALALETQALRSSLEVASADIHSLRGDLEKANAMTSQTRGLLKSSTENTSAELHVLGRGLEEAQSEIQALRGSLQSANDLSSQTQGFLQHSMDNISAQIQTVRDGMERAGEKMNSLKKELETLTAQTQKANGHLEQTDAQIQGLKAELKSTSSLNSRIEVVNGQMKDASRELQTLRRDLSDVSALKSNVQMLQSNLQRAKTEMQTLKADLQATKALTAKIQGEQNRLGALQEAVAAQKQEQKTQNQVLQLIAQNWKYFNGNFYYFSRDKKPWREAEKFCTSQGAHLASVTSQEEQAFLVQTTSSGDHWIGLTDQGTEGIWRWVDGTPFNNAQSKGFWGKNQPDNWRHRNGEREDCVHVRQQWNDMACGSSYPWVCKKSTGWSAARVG
The experiment in a line: affinity re-purification of the labelled protein on galactose-Sepharose. The format is binding. As to conditions: immobilised galactose; 25 mM CaCl2, 150 mM NaCl, pH 7.8; eluted with EDTA; fluorescein-labelled protein.

Test [2] deals with T2, Bovine CLEC4f protein (Bos taurus, UniProt A0AAA9RVQ7).
T2 construct: C-terminal fragment of the extracellular domain (neck + CRD), E. coli BL21(DE3) inclusion bodies, renatured; 35 kDa calculated; trimer; borders only in supplement
T2 sequence (A0AAA9RVQ7 274-591 limits assumed): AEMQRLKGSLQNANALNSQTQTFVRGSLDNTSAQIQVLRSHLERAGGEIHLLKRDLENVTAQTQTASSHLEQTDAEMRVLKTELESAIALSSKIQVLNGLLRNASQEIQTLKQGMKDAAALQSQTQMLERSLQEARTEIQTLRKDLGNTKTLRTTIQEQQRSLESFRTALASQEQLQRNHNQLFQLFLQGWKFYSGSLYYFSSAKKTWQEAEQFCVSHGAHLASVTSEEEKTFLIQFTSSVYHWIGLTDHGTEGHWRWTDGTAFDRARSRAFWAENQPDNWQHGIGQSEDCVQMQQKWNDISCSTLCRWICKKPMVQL
The test can be described thus: affinity chromatography on galactose-Sepharose. Particulars: immobilised galactose (divinyl sulfone coupling); 25 mM CaCl2, 150 mM NaCl, pH 7.8; Ca2+-dependent, eluted with EDTA. The format is binding.

Consider `OC[C@H]1OC(O)[C@H](O)[C@@H](O)[C@H]1O` (some centres unmarked) [galactose], for which the “affinity re-purification of the labelled protein on galactose-Sepharose” value in test [1] was “the chimpanzee, bovine and murine proteins all bind to galactose”. Also, in test [2], the “affinity chromatography on galactose-Sepharose” value is listed as “confirming that it has galactose-binding activity”.
